The cell lines below were run with CC1=CC(=C(N1C2=CC=C(C=C2)Cl)C)C(=O)CN3CCCCC3 [IU1-47] + O=C(CCCCCCC(=O)Nc1ccccc1)NO [Vorinostat] (partner 1 µM) (assay: relative viability (nuclei count vs DMSO), 5 days (fraction); higher = more cells survive). Conditions: first compound 0.8 µM.
How it was run: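 Nuclei were stained with Hoechst during a one-step fixation (final 0.05% Triton X-100, 1% formaldehyde, 1 ug/ml Hoechst) carried out 5 days after dosing, then counted on 4× images. The cells, lung cancer lines in 1536-well plates, had been dosed by pin tool the day after seeding with one drug alone or a fixed anchor-drug dose plus five library-drug doses (not always all listed) in √10 steps. Relative viability is the nuclei count in treated wells divided by that in vehicle wells, and each value is the median of duplicate plates.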

| Cell Line | relative viability |
| --- | --- |
| NCI-H2342 | 0.975 |
| SK-MES-1 | 1.26 |
| H3255 | 1.02 |
| COR-L23 | 0.439 |
| COR-L 105 | 0.779 |
| IA-LM | 1.11 |
| LOU-NH91 | 0.912 |
| ChaGo-K-1 | 0.806 |
| NCI-H2170 | 0.921 |
| NCI-H2405 | 1.14 |
| HOP-62 | 0.752 |
| HCC-44 | 1.11 |
| SW 900 | 0.616 |
| LU99A | 0.5 |
| BEN | 0.681 |
| NCI-H1648 | 0.999 |
| HCC-78 | 0.463 |

Same assay, conditions: first compound 2.53 µM

| Cell Line | relative viability |
| --- | --- |
| NCI-H522 | 0.695 |
| NCI-H727 | 1.13 |
| NCI-H1650 | 0.564 |
| NCI-H1993 | 0.835 |
| SW 1573 | 0.454 |
| NCI-H838 | 0.689 |
| LCLC-103H | 0.561 |
| NCI-H520 | 0.685 |
| NCI-H2126 | 0.478 |
| EMC-BAC-2 | 0.442 |
| NCI-H2085 | 0.626 |
| HCC-366 | 0.453 |
| NCI-H1666 | 1.1 |
| NCI-H596 | 0.658 |
| LK-2 | 0.331 |
| NCI-H2087 | 0.723 |

| Cell Line | relative viability |
| --- | --- |
| NCI-H2342 | 1.03 |
| SK-MES-1 | 1.24 |
| COR-L23 | 0.466 |
| COR-L 105 | 0.745 |
| IA-LM | 0.444 |
| LOU-NH91 | 1.04 |
| ChaGo-K-1 | 0.623 |
| NCI-H2170 | 0.748 |
| NCI-H2405 | 0.925 |
| HOP-62 | 0.433 |
| HCC-44 | 1.13 |
| SW 900 | 0.603 |
| LU99A | 0.579 |
| BEN | 0.564 |
| NCI-H1648 | 0.265 |
| HCC-78 | 0.397 |

Same assay, conditions: first compound 8 µM

| Cell Line | relative viability |
| --- | --- |
| NCI-H522 | 0.851 |
| NCI-H727 | 1.11 |
| NCI-H1650 | 0.722 |
| NCI-H1993 | 0.718 |
| SW 1573 | 0.792 |
| NCI-H838 | 0.64 |
| LCLC-103H | 0.704 |
| NCI-H520 | 0.589 |
| NCI-H2126 | 0.731 |
| EMC-BAC-2 | 0.419 |
| NCI-H2085 | 0.76 |
| HCC-366 | 0.342 |
| NCI-H1666 | 1.03 |
| NCI-H596 | 0.587 |
| LK-2 | 0.274 |
| NCI-H2087 | 0.489 |

| Cell Line | relative viability |
| --- | --- |
| NCI-H2342 | 0.825 |
| SK-MES-1 | 1.03 |
| H3255 | 0.669 |
| COR-L23 | 0.404 |
| COR-L 105 | 0.958 |
| IA-LM | 1.06 |
| LOU-NH91 | 0.82 |
| ChaGo-K-1 | 0.717 |
| NCI-H2170 | 0.747 |
| NCI-H2405 | 1.01 |
| HOP-62 | 0.532 |
| HCC-44 | 1.09 |
| SW 900 | 0.428 |
| LU99A | 0.426 |
| BEN | 0.544 |

From the supplement of paper PMC10307832
